Assay [1] deals with T1, recombinant human Meningioma Expressed Antigen 5 (MGEA5), also referred to as O-GlcNAcase (OGA) (Homo sapiens, UniProt O60502).
T1 construct: Full length OGA enzyme was purchased at OriGene (cat #TP322411); purchased OriGene TP322411
T1 sequence (O60502 1-916): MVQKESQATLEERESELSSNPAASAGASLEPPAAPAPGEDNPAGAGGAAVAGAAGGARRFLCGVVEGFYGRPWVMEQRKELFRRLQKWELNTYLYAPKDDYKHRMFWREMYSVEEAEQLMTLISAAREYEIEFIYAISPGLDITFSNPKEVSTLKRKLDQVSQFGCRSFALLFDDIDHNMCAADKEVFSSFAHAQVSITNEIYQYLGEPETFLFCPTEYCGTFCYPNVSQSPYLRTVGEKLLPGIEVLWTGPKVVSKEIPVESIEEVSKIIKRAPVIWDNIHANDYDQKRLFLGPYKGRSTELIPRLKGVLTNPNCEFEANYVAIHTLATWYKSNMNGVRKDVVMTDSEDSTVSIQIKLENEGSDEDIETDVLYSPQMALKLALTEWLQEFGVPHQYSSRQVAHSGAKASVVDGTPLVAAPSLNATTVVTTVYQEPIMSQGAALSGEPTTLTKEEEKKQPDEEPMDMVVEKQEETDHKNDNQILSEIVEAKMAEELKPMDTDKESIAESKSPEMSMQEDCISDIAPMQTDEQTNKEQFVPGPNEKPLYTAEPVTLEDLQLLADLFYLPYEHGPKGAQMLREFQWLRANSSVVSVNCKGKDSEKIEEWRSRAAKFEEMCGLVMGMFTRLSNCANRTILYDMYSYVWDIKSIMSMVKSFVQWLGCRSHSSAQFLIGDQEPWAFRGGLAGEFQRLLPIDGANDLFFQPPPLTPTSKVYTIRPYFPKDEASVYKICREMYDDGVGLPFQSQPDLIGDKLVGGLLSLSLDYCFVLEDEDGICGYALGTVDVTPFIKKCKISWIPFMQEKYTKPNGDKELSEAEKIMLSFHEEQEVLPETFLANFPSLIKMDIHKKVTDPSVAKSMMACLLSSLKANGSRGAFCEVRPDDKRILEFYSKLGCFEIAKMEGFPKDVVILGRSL
The assay can be described thus: OGA biochemical assay (inhibition of FM-GlcNAc hydrolysis, fluorescence). As to conditions: for Emax: read-out: Enzymatic Emax (%); for IC50: read-out: Enzymatic hOGA, pIC50 (converted). The text has this:
The assay is based on the inhibition of the hydrolysis of fluorescein mono-B-D-N-Acetyl-Glucosamine (FM-GcNAc) (Mariappa et al. 2015, Biochem J470:255) by the recombinant human Meningioma Expressed Antigen 5 (MGEA5), also referred to as O-GlcNAcase (OGA). The hydrolysis FM-GlcNAc (Marker Gene technologies, cat #M1485) results in the formation of B-D-N-glucosamineacetate and fluorescein. The fluorescence of the latter can be measured at excitation wavelength 485 nm and emission wavelength 538 nm. An increase in enzyme activity results in anincrease in fluorescence signal. Full length OGA enzyme was purchased at OriGene (cat #TP322411). The enzyme was stored in 25 mM Tris.HCl, pH 7.3, 100 mM glycine, 10% glycerol at −20° C. Thiamet G and GlcNAcStatin were tested as reference compounds (Yuzwa et al. 2008 Nature Chemical Biology 4:483; Yuzwa et al. 2012 Nature Chemical Biology 8:393). The assay was performed in 200 mM Citrate/phosphate buffer supplemented with 0.005% Tween-20. 35.6 g Na2HPO4 2H2O (Sigma, #C0759) were dissolved in 1 L water to obtain a 200 mM solution. 19.2 g citric acid (Merck, #1.06580) was dissolved in 1 L water to obtain a 100 mM solution. pH of the sodiumphosphate solution was adjusted with the citric acid solution to 7.2. The buffer to stop the reaction consists of a 500 mM Carbonate buffer, pH 11.0. 734 mg FM-GlcNAc were dissolved in 5.48 mL DMSO to obtain a 250 mM solution and was stored at −20° C. OGA was used at a 2 nM concentration and FM-GcNAc at a 100 uM final concentration. Dilutions were prepared in assay buffer.
50 nl of a compound dissolved in DMSO was dispensed on Black Proxiplate™ 384 Plus Assay plates (Perkin Elmer, #6008269) and 3 μl fl-OGA enzyme mix added subsequently. Plates were pre-incubated for 60 min at room temperature and then 2 μl FM-GlcNAc substrate mix added.
Plates were briefly centrifuged for 1 min at 1000 rpm and incubate at room temperature for 6 h. To stop the reaction 5 μl STOP buffer were added and plates centrifuge again 1 min at 1000 rpm. Fluorescence was quantified in the Thermo Scientific Fluoroskan Ascent or the PerkinElmer EnVision with excitation wavelength 485 nm and emission wavelength 538 nm.
For analysis a best-fit curve is fitted by a minimum sum of squares method. From this an IC50 value and Hill coefficient was obtained. High control (no inhibitor) and low control (saturating concentrations of standard inhibitor) were used to define the minimum and maximum values.

Another assay has as its target T2, OGA (Homo sapiens, UniProt O60502).
T2 construct: HEK293 cells inducible for P301L mutant human Tau (isoform 2N4R) were established at Janssen; endogenous in cells; host or cells: HEK293 cells inducible for P301L mutant human Tau (2N4R)
T2 sequence (O60502 1-916): T1 sequence (O60502 1-916)
Kind of assay: OGA cellular assay (ICC detection of O-GlcNAcylated proteins in HEK293 cells inducible for P301L mutant human Tau). It is filed as cell-based. As to conditions: 6 hours incubation; for Emax: HEK293, HEK293 cells inducible for P301L mutant human Tau; for EC50: read-out: Cellular hOGA, pEC50 (converted). Here is the method: HEK293 cells inducible for P301L mutant human Tau (isoform 2N4R) were established at Janssen. Thiamet-G was used for both plate validation (high control) and as reference compound (reference EC50 assay validation). OGA inhibition is evaluated through the immunocytochemical (ICC) detection of O-GlcNAcylated proteins by the use of a monoclonal antibody (CTD110.6; Cell Signaling, #9875) detecting 0-GlcNAcylated residues as previously described (Dorfmueller et al. 2010 Chemistry & biology, 17:1250). Inhibition of OGA will result in an increase of 0-GlcNAcylated protein levels resulting in an increased signal in the experiment. Cell nuclei are stained with Hoechst to give a cell culture quality control and a rough estimate of immediate compounds toxicity, if any. ICC pictures are imaged with a Perkin Elmer Opera Phenix plate microscope and quantified with the provided software Perkin Elmer Harmony 4.1.
Cells were propagated in DMEM high Glucose (Sigma, #D5796) following standard procedures. 2 days before the cell assay cells are split, counted and seeded in Poly-D-Lysine (PDL) coated 96-wells (Greiner, #655946) plate at a cell density of 12,000 cells per cm^2 (4,000 cells per well) in 100p of Assay Medium (Low Glucose medium is used to reduce basal levels of GlcNAcylation) (Park et al. 2014 The Journal of biological chemistry 289:13519). At the day of compound test medium from assay plates was removed and replenished with 90 μl of fresh Assay Medium. 10 μl of compounds at a 10 fold final concentration were added to the wells. Plates were centrifuged shortly before incubation in the cell incubator for 6 hours. DMSO concentration was set to 0.2%. Medium is discarded by applying vacuum. For staining of cells medium was removed and cells washed once with 100 μl D-PBS (Sigma, #D8537). From next step onwards unless other stated assay volume was always 50p and incubation was performed without agitation and at room temperature. Cells were fixed in 50 μl of a 4% paraformaldehyde (PFA, Alpha aesar, #043368) PBS solution for 15 minutes at room temperature. […] Before analysis samples were washed 2 times manually for 5 minutes in ICC base buffer.
Imaging is performed using Perkin Elmer Phenix Opera using a water 20× objective and recording 9 fields per well. Intensity readout at 488 nm is used as a measure of O-GlcNAcylation level of total proteins in wells. To assess potential toxicity of compounds nuclei were counted using the Hoechst staining. IC50-values are calculated using parametric non-linear regression model fitting. As a maximum inhibition Thiamet G at a 200 uM concentration is present on each plate. In addition, a concentration response of Thiamet G is calculated on each plate.

[2] abbreviates: HEK293 cells inducible for P301L mutant human Tau.

Each structure is given as a SMILES string.

The term Emax denotes the greatest response seen or fitted, relative to the assay's reference. Turning to `Cc1cc(OC2CCN(C(C)c3cnc4c(c3)OCC4)CC2)cc(C)n1` (stereo not drawn) [Compound 58], in assay [1], the Emax came to 89% and the IC50 was 1260 nM. Also, the Emax on OGA (maximum = Thiamet G 200 uM) is 38%.
As for `Cc1cc(OC2CCN(C(C)c3ccc4sc(C)nc4n3)CC2)cc(C)n1` (stereo not drawn) [Compound 7], in assay [1], the Emax worked out at 100% and the IC50 is 63.1 nM. The Emax at OGA (maximum = Thiamet G 200 uM) is 71%. Further, the EC50 at OGA (setting [2]) is 398 nM.
For `Cc1cc(COC2CCN(Cc3ccc4sc(C)nc4n3)CC2)cc(C)n1` [Compound 36], in that order: 90%, 1260 nM, 7% and above 1000 nM.
As to `COc1cc(OC2CCN(C(C)c3ccc4sc(C)nc4n3)CC2)cc(C)n1` (single isomer, unassigned) [Compound 24], in assay [1], the “Enzymatic Emax (%)” value amounted to 98% and the IC50 is 20 nM. Further, the “Cellular Emax (%)” value at OGA (HEK293 cells inducible for P301L mutant human Tau, maximum = Thiamet G 200 uM) is recorded as 72%. Besides, the EC50 on OGA (setting [2]) is 100 nM.
Turning to `Cc1cc(OC2CCN(C(C)c3cc4c(cn3)OCCO4)CC2)cc(C)n1` (stereo not drawn) [Compound 29], in assay [1], the Emax was 60% and the IC50 was 5010 nM. Moreover, the Emax at OGA (maximum = Thiamet G 200 uM) was determined as 7%. Besides, the EC50 at OGA (setting [2]) was above 1000 nM.
On the same counts, the results for `CC(c1ccc2c(n1)OCCO2)N1CCC(Oc2ccc(C(F)(F)F)cn2)CC1` (stereo not drawn) [Compound 42] are 101%, 100 nM, 21% and above 1000 nM.
Turning to `Cc1cc(OC2CCN([C@H](C)c3nc4c(cc3F)OCCO4)CC2)nc(C)n1` (single isomer, unassigned) [Compound 55], in assay [1], the Emax is 97% and the IC50 was 200 nM. Further, the Emax on OGA (maximum = Thiamet G 200 uM) stood at 14%. Moreover, on OGA (setting [2]), the EC50 is above 1000 nM.
On the same counts, the results for `COc1cc(OC2CCN([C@@H](C)c3nc4nc(C)sc4cc3F)CC2)cc(C)n1` (single isomer, unassigned) [Compound 81] are 93%, 1.58 nM, 87% and 31.6 nM.
On the same counts, the results for `CC(c1nc2c(cc1F)OCCO2)N1CCC(Oc2ccc(C#N)nn2)CC1` (stereo not drawn) [Compound 92] are 97%, 25.1 nM, 66% and 126 nM.
On the same counts, the results for `COc1cc(OC2CCN(C(C)c3nc4c(cc3F)OCCO4)CC2)cc(C)n1` (stereo not drawn) [Compound 15] are 102%, 5.01 nM, 72% and 50.1 nM.
With `CCc1cc(OC2CCN(C(C)c3ccc4c(n3)OCCO4)CC2)cc(C)n1` (stereo not drawn) [Compound 129], the Emax in assay [1] worked out at 97%; on OGA (maximum = Thiamet G 200 uM), 83%. Besides, the IC50 in assay [1] was 63.1 nM. Also, the EC50 on OGA (setting [2]) was 126 nM.
For `C[C@H](c1nc2c(cc1F)OCCO2)N1CCC(Oc2ccc(C#N)nn2)CC1` (single isomer, unassigned) [Compound 85], in assay [1], the Emax is -11% and the IC50 is above 10000 nM. The Emax at OGA (maximum = Thiamet G 200 uM) is -3%. Also, on OGA (setting [2]), the EC50 was above 1000 nM.
For `COc1ccc(OC2CCN(C(C)c3ccc4c(n3)OCCO4)CC2)nc1` (stereo not drawn) [Compound 99], in that order: 98%, 158 nM, 34% and above 1000 nM.
On the same counts, the results for `Cc1cc(OC2CCN(C(C)c3cnc4c(c3)OCCO4)CC2)cc(C(F)(F)F)n1` (stereo not drawn) [Compound 19] are 92%, 1000 nM, 17% and above 1000 nM.
Regarding `CC(c1nc2c(cc1F)OCCO2)N1CCC(Oc2ccc(C#N)cn2)CC1` (stereo not drawn) [Compound 49], in assay [1], the Emax was found to be 99% and the IC50 was 20 nM. Moreover, at OGA (maximum = Thiamet G 200 uM), the Emax is 81%. Further, at OGA (setting [2]), the EC50 is 288 nM.
For `COc1cc(OC2CCN(C(C)c3ccc4sc(C)nc4n3)CC2)cc(C)n1` (stereo not drawn) [Compound 16], in that order: 99%, 25.1 nM, 91% and 126 nM.
On to `Cc1cc(OC2CCN(C(C)c3ccc4c(n3)OCCO4)CC2)nc(C)n1` (stereo not drawn) [Compound 9], for which, in assay [1], the Emax amounted to 102% and the IC50 was 100 nM.
For `Cc1cc(OC2CCN(C(C)c3ccc4c(n3)OCCO4)CC2)cc(C)n1` (stereo not drawn) [Compound 1], in that order: 101% and 63.1 nM.
For the compound `Cc1cc(OC2CCN(C(C)c3ccc4c(n3)OCCO4)CC2)nc(C)n1` (single isomer, unassigned) [Compound 11], in assay [1], the “Enzymatic Emax (%)” value is listed as 84% and the IC50 is 2510 nM.

The values are drawn from patent US20210122763A1, “OGA INHIBITOR COMPOUNDS” (Janssen Pharmaceutica NV, priority 2018, published 2021).
